# Measurements reported in ChEMBL document CHEMBL1201862, “PubChem BioAssay data set” (2004).
#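 Exposure lasted 48 hours, with cells grown in 96-well plates and compounds tested at five concentrations. Abbreviation: GI50, concentration required for 50% inhibition of growth.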 Calls of active or inactive are those of the source. Cut-off read from the data, not from the text of the source: active = GI50 up to about 1.1 µM and inactive = higher.
# Key:
# Assay in all cases: inhibition of tumour cell growth, NCI panel, 48 h
# EKVX = test system: EKVX
# SK-OV-3 = test system: SK-OV-3
# UACC-257 = test system: UACC-257
# U-251 = test system: U-251
# SF-539 = test system: SF-539
# CAKI-1 = test system: CAKI-1
# NCI-H226 = test system: NCI-H226
# A549 = test system: A549
# RPMI-8226 = test system: RPMI-8226
# M14 = test system: M14
# NCI-H522 = test system: NCI-H522
# SW-620 = test system: SW-620
# HT-29 = test system: HT-29
# OVCAR-3 = test system: OVCAR-3
# OVCAR-8 = test system: OVCAR-8
# CCRF-CEM = test system: CCRF-CEM
# RXF 393 = test system: RXF 393
# HCT-15 = test system: HCT-15
# SR = test system: SR
SMILES,GI50 (EKVX),GI50 (SK-OV-3),GI50 (UACC-257),GI50 (U-251),GI50 (SF-539),GI50 (CAKI-1),GI50 (NCI-H226),GI50 (A549),GI50 (RPMI-8226),GI50 (M14),GI50 (NCI-H522),GI50 (SW-620),GI50 (HT-29),GI50 (OVCAR-3),GI50 (OVCAR-8),GI50 (CCRF-CEM),GI50 (RXF 393),GI50 (HCT-15) [µM],GI50 (SR)
Brc1ccc2c(-c3csc(-c4c[nH]c5ccccc45)n3)c[nH]c2c1,15.6 µM (inactive),18.9 µM (inactive),22.8 µM (inactive),17.9 µM (inactive),16 µM (inactive),15.8 µM (inactive),14.5 µM (inactive),15.8 µM (inactive),19.4 µM (inactive),14.3 µM (inactive),17.3 µM (inactive),16.5 µM (inactive),15.6 µM (inactive),13.8 µM (inactive),18.2 µM (inactive),14.7 µM (inactive),22.4 µM (inactive),–,–
CCSc1n/c(=C\c2ccc(N(C)C)cc2)c2nnnn12,> 100 µM (inactive),> 100 µM (inactive),> 100 µM (inactive),> 100 µM (inactive),–,> 100 µM (inactive),> 100 µM (inactive),> 100 µM (inactive),> 100 µM (inactive),> 100 µM (inactive),> 100 µM (inactive),> 100 µM (inactive),> 100 µM (inactive),> 100 µM (inactive),> 100 µM (inactive),> 100 µM (inactive),> 100 µM (inactive),> 100,–
O=C1CC(c2ccc(Cl)cc2)C2(C(=O)NC(=O)NC2=O)C(c2ccc(Cl)cc2)C1 (stereo not given),47.4 µM (inactive),–,30.8 µM (inactive),27.5 µM (inactive),28.2 µM (inactive),35.2 µM (inactive),16 µM (inactive),–,10.3 µM (inactive),27.7 µM (inactive),17.5 µM (inactive),26.2 µM (inactive),23 µM (inactive),24.9 µM (inactive),27.5 µM (inactive),30.3 µM (inactive),15 µM (inactive),22.9,–
C[C@]12O[C@@]3(C)O[C@@]3(C)[C@]3(C)O[C@]3(C)[C@@]1(C)O2,> 100 µM (inactive),> 100 µM (inactive),> 100 µM (inactive),> 100 µM (inactive),–,> 100 µM (inactive),> 100 µM (inactive),> 100 µM (inactive),–,> 100 µM (inactive),> 100 µM (inactive),–,> 100 µM (inactive),–,> 100 µM (inactive),–,–,> 100,> 100 µM (inactive)
COc1cc(OC)c(OC)cc1/C=C/c1ccc2ccccc2n1,–,> 10 µM (inactive),> 10 µM (inactive),> 10 µM (inactive),3.53 µM (inactive),> 10 µM (inactive),–,> 10 µM (inactive),3.66 µM (inactive),> 10 µM (inactive),5.41 µM (inactive),> 10 µM (inactive),4.35 µM (inactive),> 10 µM (inactive),> 10 µM (inactive),6.17 µM (inactive),–,7.62,3.57 µM (inactive)
C#CCN(C(=O)C(F)(F)F)C(/C=C\C(=O)OC)(C(=O)OCC)C(=O)OCC,> 100 µM (inactive),> 100 µM (inactive),–,> 100 µM (inactive),> 100 µM (inactive),–,> 100 µM (inactive),> 100 µM (inactive),> 100 µM (inactive),> 100 µM (inactive),> 100 µM (inactive),> 100 µM (inactive),> 100 µM (inactive),> 100 µM (inactive),> 100 µM (inactive),> 100 µM (inactive),> 100 µM (inactive),> 100,–
COc1ccc(-c2[nH]c(-c3ccc(OC)cc3)c(-c3ccccn3)c2-c2ccccn2)cc1,72.3 µM (inactive),> 100 µM (inactive),40.2 µM (inactive),43.8 µM (inactive),63.1 µM (inactive),> 100 µM (inactive),85.7 µM (inactive),40.8 µM (inactive),20.2 µM (inactive),48.1 µM (inactive),–,36 µM (inactive),21.6 µM (inactive),48.9 µM (inactive),50 µM (inactive),35.2 µM (inactive),31.3 µM (inactive),26.1,34.6 µM (inactive)
NC1=CN(Cc2ccccc2)C2=N/C(=C\c3ccccc3O)C(=O)N12,52.1 µM (inactive),> 100 µM (inactive),> 100 µM (inactive),71.6 µM (inactive),> 100 µM (inactive),> 100 µM (inactive),> 100 µM (inactive),> 100 µM (inactive),75.7 µM (inactive),> 100 µM (inactive),> 100 µM (inactive),> 100 µM (inactive),> 100 µM (inactive),> 100 µM (inactive),> 100 µM (inactive),81.8 µM (inactive),> 100 µM (inactive),> 100,–
NC(=O)c1cccc(OCC(O)CO)c1 (stereo not given),> 100 µM (inactive),> 100 µM (inactive),> 100 µM (inactive),> 100 µM (inactive),> 100 µM (inactive),> 100 µM (inactive),> 100 µM (inactive),> 100 µM (inactive),–,> 100 µM (inactive),> 100 µM (inactive),> 100 µM (inactive),> 100 µM (inactive),> 100 µM (inactive),> 100 µM (inactive),> 100 µM (inactive),–,> 100,> 100 µM (inactive)
Cc1ccc(NC(=O)CC(=O)N2N=C(N(c3ccccc3)c3ccccc3)CC2c2ccccc2)cc1 (stereo not given),> 100 µM (inactive),> 100 µM (inactive),> 100 µM (inactive),> 100 µM (inactive),> 100 µM (inactive),> 100 µM (inactive),> 100 µM (inactive),> 100 µM (inactive),> 100 µM (inactive),> 100 µM (inactive),> 100 µM (inactive),> 100 µM (inactive),> 100 µM (inactive),> 100 µM (inactive),> 100 µM (inactive),> 100 µM (inactive),52.8 µM (inactive),> 100,–
C/C=C1\CC(C(=O)OCC)CCCCCCCCCCC1=O (stereo not given),41.5 µM (inactive),> 100 µM (inactive),37.8 µM (inactive),55.2 µM (inactive),> 100 µM (inactive),> 100 µM (inactive),25.1 µM (inactive),51.3 µM (inactive),–,> 100 µM (inactive),25.5 µM (inactive),38.5 µM (inactive),46.8 µM (inactive),–,43.3 µM (inactive),37 µM (inactive),55.8 µM (inactive),34.6,–
CC(C)=Cc1cc(C)c2c(O)cc(C)c3c2c1C(C)=C(O)C3=O,–,28.9 µM (inactive),36.6 µM (inactive),32.7 µM (inactive),28.1 µM (inactive),27 µM (inactive),21.5 µM (inactive),24.8 µM (inactive),0.0257 µM (active),22.4 µM (inactive),18.3 µM (inactive),31.5 µM (inactive),14.9 µM (inactive),20.6 µM (inactive),38.1 µM (inactive),< 0.01 µM (active),–,23,35.3 µM (inactive)
COc1ccc2oc(OC)c(CC=C(C)C)c(=O)c2c1C,> 100 µM (inactive),> 100 µM (inactive),> 100 µM (inactive),> 100 µM (inactive),> 100 µM (inactive),> 100 µM (inactive),> 100 µM (inactive),> 100 µM (inactive),> 100 µM (inactive),> 100 µM (inactive),> 100 µM (inactive),> 100 µM (inactive),> 100 µM (inactive),> 100 µM (inactive),> 100 µM (inactive),> 100 µM (inactive),–,> 100,> 100 µM (inactive)
Cc1ccc(-c2cc[n+]3c(n2)oc2ccccc23)cc1,26.4 µM (inactive),33.6 µM (inactive),18.8 µM (inactive),36.7 µM (inactive),25.1 µM (inactive),41.5 µM (inactive),–,53.3 µM (inactive),12.5 µM (inactive),25.9 µM (inactive),5.98 µM (inactive),8.93 µM (inactive),–,17.7 µM (inactive),21.2 µM (inactive),10.3 µM (inactive),–,> 100,11 µM (inactive)
C=CCOc1ccc(C(=N/NC(=O)c2ccccc2)/N=N/c2ccc([N+](=O)[O-])cc2)cc1OC,> 100 µM (inactive),–,> 100 µM (inactive),> 100 µM (inactive),> 100 µM (inactive),> 100 µM (inactive),> 100 µM (inactive),> 100 µM (inactive),–,> 100 µM (inactive),> 100 µM (inactive),> 100 µM (inactive),> 100 µM (inactive),> 100 µM (inactive),> 100 µM (inactive),> 100 µM (inactive),> 100 µM (inactive),> 100,> 100 µM (inactive)
COC(=O)c1ccccc1C1CN=NC12Cc1ccc(C)c(C)c1C2=O (stereo not given),> 100 µM (inactive),> 100 µM (inactive),25.8 µM (inactive),> 100 µM (inactive),> 100 µM (inactive),79.6 µM (inactive),> 100 µM (inactive),57.5 µM (inactive),–,62.7 µM (inactive),6.84 µM (inactive),> 100 µM (inactive),27.2 µM (inactive),> 100 µM (inactive),> 100 µM (inactive),34.3 µM (inactive),76.4 µM (inactive),33.9,–
O=C(NCP(=O)(O)O)c1cccnc1 [(NICOTINAMIDOMETHYL)PHOSPHONIC ACID],> 100 µM (inactive),> 100 µM (inactive),> 100 µM (inactive),> 100 µM (inactive),> 100 µM (inactive),> 100 µM (inactive),> 100 µM (inactive),> 100 µM (inactive),> 100 µM (inactive),> 100 µM (inactive),–,> 100 µM (inactive),> 100 µM (inactive),> 100 µM (inactive),> 100 µM (inactive),> 100 µM (inactive),> 100 µM (inactive),> 100,> 100 µM (inactive)
